Measured values taken from patent publication US10266520B2, “Bisamidinium-based inhibitors for the treatment of myotonic dystrophy” (The Board of Trustees of the University of Illinois, priority 2014, dated 2019).

Key:
GFP-MBNL-rCUG^exp foci = assay: Nuclear foci disruption, FISH/confocal with GFP-MBNL1 in DM1 model HeLa cells; format: cell-based
Experimental: (§1) FIG. 2A-C. (a) Representative confocal microscope images showing the GFP-MBNL-rCUG^exp foci disruption by compounds 1a and 2a. (b) Percent of foci area per cell after treatment of ligands for 48 h. The sequestration and dispersion of endogenous MBNL under the treatment of ligand are quantitatively measured. Error bars represent standard errors of mean from at least four independent experiments, two-tail t-test *P<0.005. Note: This was a head-to-head comparison between compounds 1a and 2a. […] The difference is attributed to variability in cells and conditions. (c) Cytotoxicity profile of compound 2a.
To evaluate the ability of dimer 2a to disrupt the […] in DM1 model cells, a standard fluorescence in situ hybridization experiment using exogenous MBNL was performed (FIG. 2a) (see Jahromi et al., ACS Chem. Biol. 2013, 8, 1037-1043). Here, GFP-MBNL1 was employed because of its intense signal and ability to easily monitor the location of the MBNL1 in live cells. Thus, normal HeLa cells were transfected with a plasmid containing GFP-MBNL1. To generate DM1 model cells, these HeLa cells were also transfected with a DMPK plasmid containing (CTG)960. […] The presence of MBNL1 was indicated as a green color from GFP signal for GFP-MBNL1 (Column 2), whereas (CUG)960 was detected by a complementary sequence (CAG)10 conjugated with a Cy3 dye and represented by a red color (Column 3). […]

[1] = system: MBNL1-rCUG^exp nuclear foci; assay: Nuclear foci quantification with endogenous MBNL1 (immunofluorescence) in DM1 model cells; format: cell-based; conditions: 48 h
Experimental: as §1
In addition, a parallel experiment using endogenous MBNL1 in place of GFP-MBNL1 was conducted to quantify foci reduction in a model that more closely resembles DM1 patient cells. The endogenous MBNL1 was detected by an immunofluorescence technique (Alexa Fluor® 488 dye-labeled antibody) (Wong et al., J. Am. Chem. Soc. 2014, 136, 6355-6361). […] Incubation of 2a at 10 μM decreased the foci area to ca. 36%, but a similar level was also observed for the 100 μM treatment. It is encouraging that dimeric ligand 2a is as active at 1 μM as monomeric ligand 1a is at 100 μM. However, the lack of an obvious dose dependence and failure to fully dissolved nuclear foci at 100 μM may indicate a cellular penetration issue for 2a. Further study is underway.
ITC, EMSA, confocal microscopy, IR splicing, and the reversal of rough-eye phenotype assays were conducted as previously described (Wong et al., J. Am. Chem. Soc. 2014, 136, 6355-6361). The cytotoxicity of 2a was accessed using a published protocol (Vichai et al., Sulforhodamine B colorimetric assay for cytotoxicity screening, Nat. Protoc. 2006, 1, 1112-1116).

[2] = system: Drosophila flies (gmr-GAL4>UAS-i(CTG)480; CTG60 control); assay: Rough eye phenotype in DM1 Drosophila model; format: in vivo; conditions: for eye structure of control flies: 400 μM, CTG60 Drosophila flies
Experimental: (§2) FIG. 4A-C. Efficacy of 1a and 2a in DM1 Drosophilia fly mode. (a) Improvement in adult rough eye phenotype. Each experiment was conducted in triplicate. (b) Effect of ligands on the control Drosophilia larvae (24B−GAL4>UAS−(CTG)60). (c) Dose-dependent effect of ligands on the DM1 larvae (24B−GAL4>UAS−i(CTG)480). Each experiment was conducted in triplicate, 10 individual larvae for each trial. Error bars represent standard deviation, two tail t-test *P<0.05, **P<0.01, ***P<0.001.
(§3) Drosophila lines were cultured in standard cornmeal medium supplemented with dry yeasts. Fly lines bearing UAS-(CTG)60 and UAS-(CTG)480 were kind gifts of Prof. Rubén Artero Allepuz (Universitate de València, Estudi General, Spain). The gmr-GAL4 and […] lines were used to drive UAS transgene expression in eye and muscles respectively. Ligands 1a and 2a were dissolved in ddH2O and mixed with fly food. Genetic crosses were set up in drug-containing fly food at 21.5° C. for external eye assay, and at 25° C. for larval crawling assay.

[3] = system: Drosophila larvae (24B-GAL4>UAS-i(CTG)480; (CTG)60 control); assay: Larval crawling assay; format: in vivo; conditions: for mobility of normal larvae: 400 μM in fly food, control (CTG)60 larvae
Experimental: as §2
An individual larva generated from transgenic flies was placed on a Petri dish over graph paper, and the number of grid lines crossed by the larva in 1 min was recorded.
as §3
Larval crawling assay was performed as previously described (Lanson et al., Hum. Mol. Genet. 2011, 20, 2510-2523). Ten wandering third instar larvae were washed in ddH2O and placed on a 2% agarose gel in a 15-cm Petri dish with gridlines spaced at 0.5 cm. The larvae were allowed to acclimate for a period of 1 min, and the total number of gridlines that the posterior end of the larvae passes in 1 min was determine. Each set of experiment was repeated independently for three times using larvae collected from separate genetic crosses.

Compound	foci dispersion (GFP-MBNL1) (GFP-MBNL-rCUG^exp foci; 1, 10, and 100 μM)	nuclear foci remained after treatment ([1]; 1 μM)	foci area after treatment ([1]; 10 μM)	rough eye phenotype ([2]; 50 μM in fly food, gmr-GAL4>UAS-i(CTG)480 flies)	eye structure of control flies [2]	improvement in the DM1 larva's mobility ([3]; 20 μM, DM1 larvae) [%]	crawling defect rescued ([3]; 100 μM, DM1 larvae)	mobility of normal larvae [3]	foci dispersion (GFP-MBNL1) (GFP-MBNL-rCUG^exp foci; 100 μM)	nuclear foci remaining / foci area ([1]; 100 μM)	crawling defect rescued ([3]; 200 μM, DM1 larvae) [%]	crawling defect rescued ([3]; 400 μM, DM1 larvae) [%]
N=C(NCCCCNc1nc(N)nc(N)n1)c1ccc(C(=N)NCCCCNc2nc(N)nc(NCCCn3cc(CNc4nc(N)nc(NCCCCNC(=N)c5ccc(C(=N)NCCCCNc6nc(N)nc(N)n6)cc5)n4)nn3)n2)cc1 [Compound 2a]	foci dispersion was observed	approximately 72%	ca. 36%	partial reversal of rough eye phenotypes	did not change the fly's eye structure	37	nearly full recovered	the mobility is not affected				
N=C(NCCCCNc1nc(N)nc(N)n1)c1ccc(C(=N)NCCCCNc2nc(N)nc(N)n2)cc1 [Compound 1a]					did not change the fly's eye structure		ca. 14%	the mobility is not affected	foci dispersion was observed	ca. 90%	~54	~84
